Assay [1] concerns the target T1, Serine/threonine-protein kinase D3 (Homo sapiens) (UniProt O94806).
T1 sequence (whole entry): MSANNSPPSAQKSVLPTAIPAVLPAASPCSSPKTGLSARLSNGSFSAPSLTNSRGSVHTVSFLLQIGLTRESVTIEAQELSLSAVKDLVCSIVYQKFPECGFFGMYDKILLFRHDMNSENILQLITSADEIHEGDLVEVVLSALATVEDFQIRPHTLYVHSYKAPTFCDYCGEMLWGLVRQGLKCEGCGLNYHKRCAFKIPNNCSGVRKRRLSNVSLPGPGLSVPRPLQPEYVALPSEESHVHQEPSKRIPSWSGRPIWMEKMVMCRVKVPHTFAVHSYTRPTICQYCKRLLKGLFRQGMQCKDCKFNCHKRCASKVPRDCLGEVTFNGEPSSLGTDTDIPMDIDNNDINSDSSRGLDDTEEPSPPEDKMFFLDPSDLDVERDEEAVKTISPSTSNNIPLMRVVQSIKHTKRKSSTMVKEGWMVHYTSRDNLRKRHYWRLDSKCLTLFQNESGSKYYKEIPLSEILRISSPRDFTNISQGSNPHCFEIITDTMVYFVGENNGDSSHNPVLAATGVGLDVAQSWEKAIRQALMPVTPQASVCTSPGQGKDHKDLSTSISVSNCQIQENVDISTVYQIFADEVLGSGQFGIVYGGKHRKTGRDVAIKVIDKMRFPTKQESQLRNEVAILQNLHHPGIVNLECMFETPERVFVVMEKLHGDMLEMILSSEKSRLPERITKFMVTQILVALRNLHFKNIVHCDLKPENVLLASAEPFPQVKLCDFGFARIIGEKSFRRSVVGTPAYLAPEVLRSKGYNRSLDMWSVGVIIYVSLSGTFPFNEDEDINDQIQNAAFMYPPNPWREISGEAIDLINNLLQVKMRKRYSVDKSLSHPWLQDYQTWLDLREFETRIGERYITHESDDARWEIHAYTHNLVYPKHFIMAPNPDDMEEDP
Kind of assay: Selectivity interaction (KinomeScan (DiscoverX)) EUB0001079a PRKD3. To be noted: at 1 µM.

The target of assay [2] is Tyrosine-protein kinase ABL1 (Homo sapiens, UniProt P00519). Kind of assay: Selectivity interaction (ActivX KiNativ screen (kinase selectivity in THP-1 cell lysates)) EUB0000639a ABL1. To be noted: lysate, at 1 µM. Type of assay: subcellular.
Assay [3] concerns the target T2, Ephrin type-B receptor 2 (Homo sapiens) (UniProt P29323).
T2 sequence (whole entry): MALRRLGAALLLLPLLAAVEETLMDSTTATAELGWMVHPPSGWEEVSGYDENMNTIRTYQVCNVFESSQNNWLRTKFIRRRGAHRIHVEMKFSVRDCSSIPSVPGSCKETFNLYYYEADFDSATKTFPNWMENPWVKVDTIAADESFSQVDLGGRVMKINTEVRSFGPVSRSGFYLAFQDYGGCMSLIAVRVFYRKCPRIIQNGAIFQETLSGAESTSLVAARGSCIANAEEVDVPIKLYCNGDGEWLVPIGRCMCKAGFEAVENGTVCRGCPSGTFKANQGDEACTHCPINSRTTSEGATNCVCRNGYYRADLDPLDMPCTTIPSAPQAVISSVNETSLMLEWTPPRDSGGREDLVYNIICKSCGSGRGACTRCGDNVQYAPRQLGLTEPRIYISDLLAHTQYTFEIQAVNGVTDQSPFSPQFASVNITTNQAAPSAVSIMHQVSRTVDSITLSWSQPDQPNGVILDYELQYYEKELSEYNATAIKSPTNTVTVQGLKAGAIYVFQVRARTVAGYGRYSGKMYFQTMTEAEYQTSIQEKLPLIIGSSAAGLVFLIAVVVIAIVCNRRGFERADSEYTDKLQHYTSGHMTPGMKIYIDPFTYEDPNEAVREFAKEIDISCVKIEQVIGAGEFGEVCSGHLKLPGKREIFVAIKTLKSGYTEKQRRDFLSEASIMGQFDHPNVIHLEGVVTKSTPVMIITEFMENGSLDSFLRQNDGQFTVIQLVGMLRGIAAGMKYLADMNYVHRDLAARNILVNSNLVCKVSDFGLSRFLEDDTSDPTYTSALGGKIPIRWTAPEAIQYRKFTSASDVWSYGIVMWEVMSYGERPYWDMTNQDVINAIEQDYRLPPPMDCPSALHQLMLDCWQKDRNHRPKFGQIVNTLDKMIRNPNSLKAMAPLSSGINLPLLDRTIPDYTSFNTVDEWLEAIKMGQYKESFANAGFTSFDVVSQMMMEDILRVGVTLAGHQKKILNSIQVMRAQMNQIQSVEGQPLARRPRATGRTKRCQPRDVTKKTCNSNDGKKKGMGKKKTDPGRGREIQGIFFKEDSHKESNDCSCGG
The assay is described as follows: Selectivity interaction (KinomeScan (DiscoverX)) EUB0000045b EPHB2.

In assay [4] the target is T3, Serine/threonine-protein kinase Nek11 (Homo sapiens) (UniProt Q8NG66).
T3 sequence (whole entry): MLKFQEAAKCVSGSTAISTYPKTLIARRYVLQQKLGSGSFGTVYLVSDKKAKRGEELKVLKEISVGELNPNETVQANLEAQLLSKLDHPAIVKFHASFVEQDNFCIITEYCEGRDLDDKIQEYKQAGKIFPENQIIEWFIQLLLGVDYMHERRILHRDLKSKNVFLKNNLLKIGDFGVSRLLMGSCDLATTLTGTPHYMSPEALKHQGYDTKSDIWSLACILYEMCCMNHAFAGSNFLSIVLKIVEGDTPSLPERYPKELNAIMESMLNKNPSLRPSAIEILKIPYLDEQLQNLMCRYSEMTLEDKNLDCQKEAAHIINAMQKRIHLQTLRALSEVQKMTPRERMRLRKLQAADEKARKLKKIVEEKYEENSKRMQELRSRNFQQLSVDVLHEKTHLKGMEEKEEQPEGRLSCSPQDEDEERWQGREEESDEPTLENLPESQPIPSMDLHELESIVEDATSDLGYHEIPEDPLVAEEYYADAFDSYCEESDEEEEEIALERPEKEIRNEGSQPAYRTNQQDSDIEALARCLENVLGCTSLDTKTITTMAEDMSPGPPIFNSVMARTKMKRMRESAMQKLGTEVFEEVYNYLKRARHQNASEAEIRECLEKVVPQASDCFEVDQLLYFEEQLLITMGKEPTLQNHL
The assay is described as follows: Selectivity interaction (KinomeScan (DiscoverX)) EUB0000595a NEK11. The note with it: at 10 µM.

Each structure is given as a SMILES string.

Sequence of Tyrosine-protein kinase ABL1 (P00519 whole entry): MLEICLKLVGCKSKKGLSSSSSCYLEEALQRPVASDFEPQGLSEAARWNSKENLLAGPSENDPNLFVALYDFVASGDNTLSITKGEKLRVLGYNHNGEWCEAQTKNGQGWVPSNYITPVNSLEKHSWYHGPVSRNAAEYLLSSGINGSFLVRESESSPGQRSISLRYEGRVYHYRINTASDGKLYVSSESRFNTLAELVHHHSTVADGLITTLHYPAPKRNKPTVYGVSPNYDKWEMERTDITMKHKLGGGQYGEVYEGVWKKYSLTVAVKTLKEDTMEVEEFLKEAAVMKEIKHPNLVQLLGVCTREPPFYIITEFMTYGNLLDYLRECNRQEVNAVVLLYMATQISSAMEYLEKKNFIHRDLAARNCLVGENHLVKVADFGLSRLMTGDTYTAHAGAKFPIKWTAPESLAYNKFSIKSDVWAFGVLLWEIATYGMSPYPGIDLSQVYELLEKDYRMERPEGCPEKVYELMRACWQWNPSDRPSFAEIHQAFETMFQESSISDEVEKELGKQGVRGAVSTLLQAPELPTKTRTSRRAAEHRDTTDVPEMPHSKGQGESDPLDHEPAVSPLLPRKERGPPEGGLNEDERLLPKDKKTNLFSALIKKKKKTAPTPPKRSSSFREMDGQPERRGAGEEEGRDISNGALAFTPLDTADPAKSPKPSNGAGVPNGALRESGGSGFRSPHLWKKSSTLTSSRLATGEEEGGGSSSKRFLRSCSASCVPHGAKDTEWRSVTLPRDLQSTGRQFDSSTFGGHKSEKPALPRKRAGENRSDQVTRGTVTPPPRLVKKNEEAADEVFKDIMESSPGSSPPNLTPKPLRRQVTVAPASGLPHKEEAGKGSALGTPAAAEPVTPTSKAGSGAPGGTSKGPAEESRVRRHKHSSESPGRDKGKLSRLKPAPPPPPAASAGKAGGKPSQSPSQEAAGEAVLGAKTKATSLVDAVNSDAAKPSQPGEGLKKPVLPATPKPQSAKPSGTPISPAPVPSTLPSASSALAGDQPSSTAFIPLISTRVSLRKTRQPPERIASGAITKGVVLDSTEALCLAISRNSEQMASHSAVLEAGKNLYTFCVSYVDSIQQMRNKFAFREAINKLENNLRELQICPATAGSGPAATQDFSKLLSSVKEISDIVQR

In turn, `Nc1cnc(N2CCc3cc(S(=O)(=O)Nc4c(F)cc(Cl)cc4F)cc(N4CCCC4=O)c32)nc1` [TP-020n] yielded a % of control in assay [1] of 88%.
As for `CC[C@@H]1[C@H](F)C(=O)N[C@@H]1COc1nccc2cc(C(N)=O)c(OC)cc12` [ZIMLOVISERTIB], the % of inhibition in assay [2] was -13.2%.
As to `C=CC(=O)Nc1cc(-n2c(=O)ccc3cnc4ccc(-c5ccc(NS(C)(=O)=O)cc5)cc4c32)ccc1C`, the % of control in assay [3] (at 1 µM) was 80%; in assay [3] (at 10 µM) it was 95%.
On to `COCC(=O)NC/C=C/c1ccc2ncnc(Nc3ccc(Oc4ccc(C)nc4)c(C)c3)c2c1` [CP-724714], for which the % of control in assay [4] was determined as 100%.

The record behind these values is ChEMBL document CHEMBL5465560, “Selectivity Literature for EUbOPEN Chemogenomic Library” (2024).
